Results from patent US20050171028A1, “Thioketals and thioethers for inhibiting the expression of VCAM-1” (Atherogenics Pharmaceuticals, Inc., priority 2000, published 2005).

What was measured:
Format in all cases: cell-based
[1] = system: Human aortic endothelial cells (HAEC); assay: LD50 (toxicity to cells; visual signs of toxicity scored in the VCAM-1 assay)
Method: (§1) Human aortic endothelial cells (HAEC) were purchased from Clonetics and maintained in EGM media (Clonetics) supplemented with 5% fetal bovine serum (FBS). In a typical experiment, cells were seeded in 96-well plates. The next day cells were stimulated with TNF-alpha (1 ng/ml) purchased from Boehringer Mannheim in the presence or absence of compounds dissolved in dimethylsulphoxide (DMSO). To establish a dose curve for each compound, four concentrations in 2 fold increments were used. Cells were exposed to TNF-α and compounds for approximately 16 hours. The next day, cells were examined under microscope to score for visual signs of toxicity.
(§2) The degree of inhibition of various compounds, including the compounds prepared in the foregoing examples, using the assays described in Examples 6-9, are provided in Table IX. Results are expressed in micromolar quantities.

[2] = system: ApoB/HepG2; assay: Lipid screen: ApoB ELISA on media of treated HEPG2 cells; conditions: Homo sapiens; HEPG2 cells treated 24 hours; ApoB accumulation in media as percentage of control; read-out: ApoB/Hep G2 IC50 or % inhibition at
Method: HEPG2 cell was started in 10 ml of MEM, 10% FBS, 1 mM Sodium Pyruvate. The cells were incubated in a tissue culture incubator. The cells were split into 4×96-wells plate in MEM, 10% FBS, 1 mM Sodium Pyruvate and allowed to grow to about 50% confluency and then removed.
The cells were treated with the desired concentration of compounds in 100 μl DMEM, 1% RSA for 24 hours. The compounds are dissolved in DMSO.
On the same day, 4×96-wells NuncImmunoSorb plate is coated with 100 μl of mouse anti-human ApoB monoclonal 1D1 (1:1000 dilution in 1×PBS, pH 7.4). The coating is allowed to stand overnight.
The coated plate is washed 3 times with 1×PBS, pH 7.4, −0.05% Tween 20. 100 μl of the standards is added to the selected wells. ApoB standards are prepared at 6.25, 3.12, 1.56, 0.78, 0.39 ng, and each concentration is done in triplicates.
90 μl of 1×PBS, pH 7.4, −0.05% Tween 20 is added to each well corresponding to the sample. 10 μl of media is transferred from the treated HEPG2 plates to the ApoB ELISA plate. The plate is incubated at room temperature for 2 hours, rocking gently.
Wash the coated plate 3× with 1×PBS, pH 7.4, −0.05% Tween 20. Add 100 μl of sheep anti-human ApoB polyclonal from Boehringer Mannheim. (1:2000 dilution in 1×PBS, pH 7.4, −0.05% Tween 20). Incubate at room temperature for 1 hour, rocking gently. Wash the coated plate 3× with 1×PBS, pH 7.4, −0.05% Tween 20. Add 100 μl of rabbit anti-sheep IgG (1:2000 dilution in 1×PBS, pH 7.4, −0.05% Tween 20). Incubate at room temperature for 1 hour, rocking gently. Wash the coated plate 3× with 1×PBS, pH 7.4, −0.05% Tween 20. Add 100 μl of substrate (10 ml of distilled water, 100 μl of TMB (10 mg/ml), and 1 μl of hydrogen peroxide). Allow color to emerge and stop reaction with 25 ul of 8N sulfuric acid. Wells are read with MicroPlate Reader @ […]. Graph accumulation of ApoB in media as a percentage of control for each sample and their concentration. A determination of IC50 is obtained from the graph.

[3] = system: VCAM-1; assay: VCAM-1 assay: enzyme immunoassay of TNF-alpha induced VCAM-1 expression in endothelial cells; conditions: Homo sapiens, Endothelial cell; HAEC stimulated with TNF-alpha (1 ng/ml), about 16 hours with compound; read-out: VCAM-1 IC50 or % inhibition at
Method: The VCAM-1 assay is an enzyme immunoassay to detect tumor necrosis factor alpha (TNF-alpha) induced Vascular Cell Adhesion Molecule (VCAM-1) expression in endothelial cells.
as §1
Media was discarded and the cells were washed once with Hanks buffered saline solution (HBSS)/phosphate buffered solution (PBS) 91:1). Primary mouse monoclonal antibody against VCAM-1 purchased from Southern Biotechnology Associates (0.25 μg/ml in HBSS/PBS+5% FBS) was added and incubated at 37° C. for 30 minutes. Cells were washed with HBSS/PBS three times, and secondary antibody horse radish peroxidase (HRP)-conjugated goat anti-mouse IgG purchased from Southern Biotechnology Associates (1:500 in HBSS/PBS+5% FBS) was added and incubated at 37° C. for 30 minutes. Cells were washed with HBSS/PBS four times and peroxidase substrate 3.3′,5,5′-tetramethyl-benzidine (TMB) was added and incubated in the dark at room temperature until there was adequate blue color development. The length of incubation time was typically 5-15 minutes. 2 N sulfuric acid was added to stop the color development and the data was collected by reading the absorbance at O.D. 450 nm. The result was expressed as the percentage of control sample (cells stimulated by TNF without any compound).
as §2

| SMILES | LD50 at [1] [µM] | IC50 [2] [µM] | IC50 [3] [µM] |
| --- | --- | --- | --- |
| CC(C)(Sc1cc(C(C)(C)C)c(O)c(C(C)(C)C)c1)Sc1cc(C(C)(C)C)c(OC[C@@H](O)[C@@H](O)[C@@H](O)CO)c(C(C)(C)C)c1 | 25.0 | 6 | 12.5 |
| CC(C)(Sc1cc(C(C)(C)C)c(O)c(C(C)(C)C)c1)Sc1cc(C(C)(C)C)c(OCC2OC(O)[C@@H](O)[C@H]2O)c(C(C)(C)C)c1 (some centres unmarked) |  |  | 8 |
| CC(C)(Sc1cc(C(C)(C)C)c(O)c(C(C)(C)C)c1)Sc1cc(C(C)(C)C)c(OCC(O)COC(=O)C(O)C(O)C(O)C(O)CO)c(C(C)(C)C)c1 (centres unmarked) | 50.0 | 30 | 7 |
| CC(C)(Sc1cc(C(C)(C)C)c(O)c(C(C)(C)C)c1)Sc1cc(C(C)(C)C)c(OCC(O)CS(=O)(=O)O)c(C(C)(C)C)c1 (centres unmarked) | 50.0 |  | 10 |
| CN(C)C(=O)c1ccc(CSc2cc(C(C)(C)C)c(O)c(C(C)(C)C)c2)cc1 | 50.0 | 85 | 12.5 |
| CCN(CC)C(=O)c1ccc(CSc2cc(C(C)(C)C)c(O)c(C(C)(C)C)c2)cc1 |  | 40 | 12.5 |
